From patent publication US11000033B2, “Ketone or oxime compound, and herbicide” (NISSAN CHEMICAL CORPORATION, priority 2014, dated 2021)

Legend:
Type in all cases: in vivo
[1] = test system: transplanted rice plant; test: Test Example 1: effect on crop, application before weed generation in submerged conditions (symbol a); details: application herbicide amount 320 g/ha
Outline: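 Alluvial soil pots flooded to 4 cm water, sown with Echinochloa oryzacola, Scirpus juncoides and Monochoria vaginalis, then transplanted with 2.5 leaf stage rice seedlings; pre-emergence application. Greenhouse 25° C. to 30° C.; scored 0–5 by herbicidal ratio 3 weeks after application.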

[2] = test system: Monochoria vaginalis; test: Test Example 2: herbicidal activity, application during weed generation in submerged conditions (symbol C); details: Table 23; application herbicide amount 320 g/ha; grade 0-5 by criteria of Test Example 1
Outline: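 Flooded-soil post-emergence test: emulsion of compound, water-diluted to target rate, applied to paddy water surface at 1–2 leaf stage of mixed-sown weeds (alluvial soil, 4 cm water, 25–30° C. greenhouse); visual rating 3 weeks after application.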

[3] = test system: Leptochloa chinensis; test: Test Example 3: herbicidal effect by foliage application, Wagner pot (symbol D); details: application herbicide amount 320 g/ha
Outline: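 Rating at 3 weeks post-spray, by defined criteria. Treatment: emulsion diluted with water to a predetermined amount, applied evenly to foliage of 14-day-old plants raised in alluvial soil flooded 0.1–0.5 cm deep at 25–30 °C, rice co-sown.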

[4] = test system: Avena fatua; test: Test Example 4: herbicidal effect by soil treatment (symbol I)
Outline: (§1)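 Seeds were sown in sterilized diluvial soil, covered with about 1.5 cm of soil, and the soil surface was sprayed with a water-diluted emulsion of the compound at a predetermined rate. Plants grew in a greenhouse at 25° C. to 30° C.; effects were scored visually 3 weeks after application.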

[5] = test system: Alopecurus myosuroides; test: Test Example 4: herbicidal effect by soil treatment (symbol J)
Outline: as §1

[6] = test system: Chenopodium album; test: Test Example 4: herbicidal effect by soil treatment (symbol O)
Outline: as §1

[7] = test system: rice; test: Test Example 4: effect on crop by soil treatment (symbol b); details: for b: directly sowed rice plant, effect on crop grade: application herbicide amount 320 g/ha; for b: directly sowed rice plant, effect grade on crop: 320 g/ha
Outline: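 Crop seeds, among them rice, wheat, beet and rapeseed, were sown in sterilized diluvial soil and covered with about 1.5 cm of soil. Boxes were kept in a greenhouse at 25° C. to 30° C. for plant growth.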

[8] = test system: Digitaria ciliaris; test: Test Example 5: herbicidal effect by foliage application, plastic box (symbol F); details: 320 g/ha, 3 weeks after application
Outline: (§2)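 Sowing in sterilized diluvial soil, 14 days' greenhouse growth at 25° C. to 30° C., then uniform small-sprayer foliar application of aqueous emulsion dilution; plants scored three weeks afterwards.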

[9] = test system: Setaria viridis; test: Test Example 5: herbicidal effect by foliage application, plastic box (symbol G); details: 320 g/ha, 3 weeks after application
Outline: as §2

[10] = test system: beet; test: Test Example 5: effect on crop by foliage application, plastic box (symbol f); details: 320 g/ha, 3 weeks after application
Outline: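 Diluvial soil, sterilized and boxed (21 × 13 × 7 cm), received spot-sown seed covered by about 1.5 cm soil; plants were then greenhouse-grown at 25–30° C.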

[11] = application herbicide amount 320 g/ha

| Compound | Effect grade on crop, a: transplanted rice plant [1] | Herbicidal effect grade, C: Monochoria vaginalis [2] | herbicidal effect on D (Leptochloa chinensis), grade 0-5 [3] | I: Avena fatua, herbicidal effect grade [4, 11] | J: Alopecurus myosuroides, herbicidal effect grade [5, 11] | O: Chenopodium album, herbicidal effect grade [6, 11] | b: directly sowed rice plant, effect on crop grade [7] | F: Digitaria ciliaris, herbicidal effect grade [8] | G: Setaria viridis, herbicidal effect grade [9] | f: beet, effect on crop grade [10] | I: Avena fatua, herbicidal effect grade ([4]; 320 g/ha) | J: Alopecurus myosuroides, herbicidal effect grade ([5]; 320 g/ha) | O: Chenopodium album, herbicidal effect grade ([6]; 320 g/ha) | b: directly sowed rice plant, effect grade on crop [7] | F: Digitaria ciliaris, herbicidal effect (criteria 0-5) [8] | G: Setaria viridis, herbicidal effect (criteria 0-5) [9] | f: beet, effect on crop (criteria 0-5) [10] |
| --- | --- | --- | --- | --- | --- | --- | --- | --- | --- | --- | --- | --- | --- | --- | --- | --- | --- |
| CON=C(C)C1CC(O)=C(c2c(C)cc(C)cc2C)C1=O (mixture of isomers) [3-002] | 0 (Herbicidal ratio of 5% or lower (almost no effect)) | 0 (Herbicidal ratio of 5% or lower (almost no effect)) | 0 (Herbicidal ratio of 5% or lower (almost no effect)) | 0 (Herbicidal ratio of 5% or lower (almost no effect)) | 0 (Herbicidal ratio of 5% or lower (almost no effect)) | 0 (Herbicidal ratio of 5% or lower (almost no effect)) | 0 (Herbicidal ratio of 5% or lower (almost no effect)) | 0 (Herbicidal ratio of 5% or lower (almost no effect)) | 2 (Herbicidal ratio of 20% or higher and lower than 40%) | 0 (Herbicidal ratio of 5% or lower (almost no effect)) | – | – | – | – | – | – | – |
| CC#Cc1cc(C)c(C2=C(O)CC(CC(C)=NOC)C2=O)c(CC)c1 (mixture of isomers) [6-006] | 5 (Herbicidal ratio of 90% or more (almost completely withered)) | 1 (Herbicidal ratio of 5% or higher and lower than 20%) | 5 (Herbicidal ratio of 90% or more (almost completely withered)) | 4 (Herbicidal ratio of 70% or higher and lower than 90%) | 5 (Herbicidal ratio of 90% or more (almost completely withered)) | 0 (Herbicidal ratio of 5% or lower (almost no effect)) | 5 (Herbicidal ratio of 90% or more (almost completely withered)) | 3 (Herbicidal ratio of 40% or higher and lower than 70%) | 3 (Herbicidal ratio of 40% or higher and lower than 70%) | – | – | – | – | – | – | – | – |
| CON=C(C)CC1CC(O)=C(c2c(C)cc(-c3ccc(Cl)cc3)cc2C)C1=O (mixture of isomers) [6-029] | 5 (Herbicidal ratio of 90% or more (almost completely withered)) | 2 (Herbicidal ratio of 20% or higher and lower than 40%) | 5 (Herbicidal ratio of 90% or more (almost completely withered)) | 4 (Herbicidal ratio of 70% or higher and lower than 90%) | 5 (Herbicidal ratio of 90% or more (almost completely withered)) | 3 (Herbicidal ratio of 40% or higher and lower than 70%) | 5 (Herbicidal ratio of 90% or more (almost completely withered)) | 5 (Herbicidal ratio of 90% or more (almost completely withered)) | 5 (Herbicidal ratio of 90% or more (almost completely withered)) | 0 (Herbicidal ratio of 5% or lower (almost no effect)) | – | – | – | – | – | – | – |
| CON=C(C)CC1CC(O)=C(c2c(C)cc(-c3cccc(Cl)c3)cc2C)C1=O (mixture of isomers) [6-034] | 5 (Herbicidal ratio of 90% or more (almost completely withered)) | 3 (Herbicidal ratio of 40% or higher and lower than 70%) | 5 (Herbicidal ratio of 90% or more (almost completely withered)) | 1 (Herbicidal ratio of 5% or higher and lower than 20%) | 5 (Herbicidal ratio of 90% or more (almost completely withered)) | 0 (Herbicidal ratio of 5% or lower (almost no effect)) | 2 (Herbicidal ratio of 20% or higher and lower than 40%) | 5 (Herbicidal ratio of 90% or more (almost completely withered)) | 5 (Herbicidal ratio of 90% or more (almost completely withered)) | 0 (Herbicidal ratio of 5% or lower (almost no effect)) | – | – | – | – | – | – | – |
| CON=C(C)CC1CC(OC(=O)c2ccc(C(F)(F)F)cc2)=C(c2c(C)cc(C)cc2C)C1=O (stereo not shown) [1-149] | 5 (Herbicidal ratio of 90% or more (almost completely withered)) | 3 (Herbicidal ratio of 40% or higher and lower than 70%) | 5 (Herbicidal ratio of 90% or more (almost completely withered)) | – | – | – | – | – | – | – | 0 (Herbicidal ratio of 5% or lower (almost no effect)) | 5 (Herbicidal ratio of 90% or more (almost completely withered)) | 0 (Herbicidal ratio of 5% or lower (almost no effect)) | 5 (Herbicidal ratio of 90% or more (almost completely withered)) | 5 (Herbicidal ratio of 90% or more (almost completely withered)) | 5 (Herbicidal ratio of 90% or more (almost completely withered)) | 2 (Herbicidal ratio of 20% or higher and lower than 40%) |
| CON=C(C)CC1CC(OC(=O)Cc2ccc(OC)cc2)=C(c2c(C)cc(C)cc2C)C1=O (stereo not shown) [1-156] | 5 (Herbicidal ratio of 90% or more (almost completely withered)) | 3 (Herbicidal ratio of 40% or higher and lower than 70%) | 5 (Herbicidal ratio of 90% or more (almost completely withered)) | – | – | – | – | 5 (Herbicidal ratio of 90% or more (almost completely withered)) | 5 (Herbicidal ratio of 90% or more (almost completely withered)) | 3 (Herbicidal ratio of 40% or higher and lower than 70%) | 4 (Herbicidal ratio of 70% or higher and lower than 90%) | 5 (Herbicidal ratio of 90% or more (almost completely withered)) | 0 (Herbicidal ratio of 5% or lower (almost no effect)) | 5 (Herbicidal ratio of 90% or more (almost completely withered)) | – | – | – |
| CON=C(C)CC1CC(OS(=O)(=O)c2ccc(C)cc2)=C(c2c(C)cc(C)cc2C)C1=O (stereo not shown) [1-161] | 4 (Herbicidal ratio of 70% or higher and lower than 90%) | 3 (Herbicidal ratio of 40% or higher and lower than 70%) | 5 (Herbicidal ratio of 90% or more (almost completely withered)) | – | – | – | – | 4 (Herbicidal ratio of 70% or higher and lower than 90%) | 0 (Herbicidal ratio of 5% or lower (almost no effect)) | 0 (Herbicidal ratio of 5% or lower (almost no effect)) | 0 (Herbicidal ratio of 5% or lower (almost no effect)) | 3 (Herbicidal ratio of 40% or higher and lower than 70%) | 0 (Herbicidal ratio of 5% or lower (almost no effect)) | 3 (Herbicidal ratio of 40% or higher and lower than 70%) | – | – | – |
| COC(=O)C(C(C)=O)C1CC(O)=C(c2c(C)cc(C)cc2C)C1=O (stereo not shown) [2-003] | 0 (Herbicidal ratio of 5% or lower (almost no effect)) | 0 (Herbicidal ratio of 5% or lower (almost no effect)) | 5 (Herbicidal ratio of 90% or more (almost completely withered)) | – | – | – | – | 4 (Herbicidal ratio of 70% or higher and lower than 90%) | 5 (Herbicidal ratio of 90% or more (almost completely withered)) | 0 (Herbicidal ratio of 5% or lower (almost no effect)) | 0 (Herbicidal ratio of 5% or lower (almost no effect)) | 4 (Herbicidal ratio of 70% or higher and lower than 90%) | 0 (Herbicidal ratio of 5% or lower (almost no effect)) | 2 (Herbicidal ratio of 20% or higher and lower than 40%) | – | – | – |
